Measured values reported in patent US8772498B2, “Alkylamine-substituted dicyanopyridine and amino acid ester prodrugs thereof” (Bayer Intellectual Property GmbH, priority 2009, dated 2014).
Structures can show the parent of a compound that is named as a salt.

How the values were obtained:
adenosine A1 receptor = biological target: T1, adenosine A1 receptor (Homo sapiens, UniProt P30542); assay: Indirect determination of adenosine agonism by gene expression (luciferase), A1 cells; format: cell-based; settings: CHO cells, luciferase readout, 1 μM forskolin
T1 construct: expressed in transfected cells; host or cells: CHO (Chinese Hamster Ovary)
T1 sequence (P30542 1-326): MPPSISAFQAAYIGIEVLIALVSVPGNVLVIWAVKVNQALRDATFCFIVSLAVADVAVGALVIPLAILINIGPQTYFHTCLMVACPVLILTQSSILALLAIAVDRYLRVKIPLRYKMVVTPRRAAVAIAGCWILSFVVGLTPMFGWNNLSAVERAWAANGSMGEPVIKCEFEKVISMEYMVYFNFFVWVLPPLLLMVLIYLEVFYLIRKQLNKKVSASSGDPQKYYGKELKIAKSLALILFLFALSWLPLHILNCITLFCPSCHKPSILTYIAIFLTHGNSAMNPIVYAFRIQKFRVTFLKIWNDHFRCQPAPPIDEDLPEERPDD
Text: (§1) B-1. Indirect Determination of the Adenosine Agonism by Way of Gene Expression
(§2) Cells of the CHO (Chinese Hamster Ovary) permanent cell line are transfected stably with the cDNA for the adenosine receptor subtypes A1, A2a and A2b. The adenosine A1 receptors are coupled to the adenylate cyclase by way of G, proteins, while the adenosine A2a and A2b receptors are coupled by way of Gs proteins. In correspondence with this, the formation of cAMP in the cell is inhibited or stimulated, respectively. After that, expression of the luciferase is modulated by way of a cAMP-dependent promoter. The luciferase test is optimized, with the aim of high sensitivity and reproducibility, low variance and good suitability for implementation on a robot system, by varying several test parameters, such as cell density, duration of the growth phase and the test incubation, forskolin concentration and medium composition. The following test protocol is used for pharmacologically characterizing cells and for the robot-assisted substance screening:
(§3) The stock cultures are grown, at 37° C. and under 5% CO2, in DMEM/F12 medium containing 10% FCS (fetal calf serum) and in each case split 1:10 after 2-3 days. The test cultures are seeded in 384-well plates with 2000 cells per well and grown at 37° C. for approx. 48 hours. The medium is then replaced with a physiological sodium chloride solution (130 mM sodium chloride, 5 mM potassium chloride, 2 mM calcium chloride, 20 mM HEPES, 1 mM magnesium chloride hexahydrate, 5 mM sodium bicarbonate, pH 7.4). The substances to be tested, which are dissolved in DMSO, are pipetted into the test cultures (maximum final concentration of DMSO in the test mixture: 0.5%) in a dilution series of from 5×10^−11 M to 3×10^−6 M (final concentration). 10 minutes later, forskolin is added to the A1 cells and all the cultures are subsequently incubated at 37° C. for four hours. After that, 35 μl of a solution which is composed of 50% lysis reagent (30 mM disodium hydrogenphosphate, 10% glycerol, 3% TritonX100, 25 mM TrisHCl, 2 mM dithiotreitol (DTT), pH 7.8) and 50% luciferase substrate solution (2.5 mM ATP, 0.5 mM luciferin, 0.1 mM coenzyme A, 10 mM tricine, 1.35 mM magnesium sulfate, 15 mM DTT, pH 7.8) are added to the test cultures, which are shaken for approx. 1 minute and the luciferase activity is measured using a camera system. The ECK values are determined, i.e., the concentrations at which 50% of the luciferase answer is inhibited in the case of the A1 cell, and, respectively, 50% of the maximum stimulation with the corresponding substance is achieved in the case of the A2b and A2a cells.
(§4) Table 1 below lists the ECK values of representative working examples for the receptor stimulation on adenosine A1, A2a and A2b receptor subtypes: […]

adenosine A2b receptor = biological target: T2, adenosine A2b receptor (Homo sapiens, UniProt P29275); assay: Indirect determination of adenosine agonism by gene expression (luciferase), A2b cells; format: cell-based; settings: CHO cells, luciferase readout
T2 construct: expressed in transfected cells; host or cells: CHO (Chinese Hamster Ovary)
T2 sequence (P29275 1-332): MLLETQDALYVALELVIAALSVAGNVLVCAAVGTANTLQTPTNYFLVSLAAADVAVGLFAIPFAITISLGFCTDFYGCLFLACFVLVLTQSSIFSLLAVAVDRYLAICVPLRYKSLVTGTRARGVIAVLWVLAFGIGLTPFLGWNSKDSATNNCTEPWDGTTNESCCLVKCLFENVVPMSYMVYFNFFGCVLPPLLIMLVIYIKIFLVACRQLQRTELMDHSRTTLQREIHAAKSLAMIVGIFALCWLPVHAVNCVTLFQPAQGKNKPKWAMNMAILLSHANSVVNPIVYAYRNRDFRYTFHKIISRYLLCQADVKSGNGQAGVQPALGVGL
Text: as §1, §2, §3, §4

[1] = Stability in buffer at various pH values; format: physicochemical
Description: b) Stability in Buffer at Various pH Values:
0.3 mg of the test substance is weighed into a 2 ml HPLC vial and 0.5 ml of acetonitrile or acetonitrile/DMSO (9:1) is added. The substance is dissolved by putting the sample vessel in an ultrasonic bath for about 10 seconds. Then 0.5 ml of the respective (buffer) solution is added, and the sample is again treated in the ultrasonic bath.
(Buffer) solutions employed:
pH 4: 1 liter of Millipore water is adjusted to pH 4.0 with 1 N hydrochloric acid;
pH 7.4: 90.0 g of sodium chloride, 13.61 g of potassium dihydrogen phosphate and 83.35 g of 1 N sodium hydroxide solution are made up to 1 liter with water; this solution is then further diluted 1:10 with Millipore water.
5 μl portions of the test solution are analyzed by HPLC for their content of unchanged test substance, and of active substance (A) produced, every hour over a period of 24 hours at 37° C. The percentage areas of the appropriate peaks are used for quantification.
HPLC method for Examples 41 and 44:
(§5) Agilent 1100 with DAD (G1315B), binary pump (G1312A), autosampler (G1329A), column oven (G1316A), thermostat (G1330B); column: Kromasil 100 C18, 250 mm×4 mm, 5 μm; column temperature: 30° C.; mobile phase A: water+5 ml of perchloric acid/liter, eluent B: acetonitrile; gradient: 0 min 90% A→5.0 min 40% A→18.0 min 10% A→19.0 min 10% A→21.0 min 90% A→23.0 min 90% A; flow rate: 2.0 ml/min; UV detection: 288 nm.
HPLC Method for Examples 50 and 59:
as §5, with “125” for “250”, “60% A→7.0 min 60% A→10.0” for “40% A→18.0”, “A→12.0” for “A→19.0”, “A→14.0” for “A→21.0”, “A→16.0” for “A→23.0”, “294” for “288”
HPLC Method for Example 54:
as §5, with “(G1314A),” for “(G1315B),”, “(G1330A);” for “(G1330B);”
The ratios of the peak areas (F) at the respective time points in relation to the peak areas at the starting time are shown in Table 2 for representative exemplary embodiments: […]

[2] = Determination of the solubility in 5% strength aqueous dextrose solution; format: physicochemical; settings: for solubility at 24 h: saline or isotonic, thermodynamic from solid, room temperature
Description: B-8. Determination of Solubility, Stability and Liberation Behavior a) Determination of the Solubility:
The test substance is suspended in 5% strength aqueous dextrose solution. This suspension is shaken at room temperature for 24 h. After ultracentrifugation at 224 000 g for 30 min, the supernatant is diluted with DMSO and analyzed by HPLC. A two-point calibration plot of the test compound in DMSO is used for quantification.
Agilent 1100 with DAD (G1315A), quat. pump (G1311A), autosampler CTC HTS PAL, degasser (G1322A) and column thermostat (G1316A); column: Phenomenex Gemini C18, 5 μm, 50 mm×2 mm; temperature: 40° C.; eluent A: water/phosphoric acid pH 2; eluent B: acetonitrile; flow rate: 0.7 ml/min; gradient: 0-0.5 min 85% A, 15% B; ramp: 0.5-3 min 10% A, 90% B; 3-3.5 min 10% A, 90% B; ramp: 3.5-4 min 85% A, 15% B; 4-5 min 85% A, 15% B.
Agilent 1100 with DAD (G1315A), quat. pump (G1311A), autosampler CTC HTS PAL, degasser (G1322A) and column thermostat (G1316A); column: VDSoptilab Kromasil 100 C18, 3.5 μm, 60 mm×2.1 mm; temperature: 30° C.; eluent A: water+5 ml perchloric acid/I; eluent B: acetonitrile; flow rate: 0.75 ml/min; gradient: 0-0.5 min 98% A, 2% B; ramp: 0.5-4.5 min 10% A, 90% B; 4.5-6 min 10% A, 90% B; ramp: 6.5-6.7 min 98% A, 2% B; 6.7-7.5 min 98% A, 2% B.

Compound | % test substance after 4 h (F(t = 4 h) × 100/F(t = 0 h)) ([1]; pH 4, 37° C.) [%] | % test substance after 24 h (F(t = 24 h) × 100/F(t = 0 h)) ([1]; pH 4, 37° C.) [%] | % test substance after 4 h (F(t = 4 h) × 100/F(t = 0 h)) ([1]; pH 7.4, 37° C.) [%] | % test substance after 24 h (F(t = 24 h) × 100/F(t = 0 h)) ([1]; pH 7.4, 37° C.) [%] | solubility at 24 h [2] [µg/mL] | also measured
N#Cc1c(SCc2csc(-c3ccc(Cl)cc3)n2)nc(N2CCOCC2)c(C#N)c1-c1ccc(OCCO)cc1 [Example 17, 2-({(2-(4-chlorophenyl)-1,3-thiazol-4-yl)methyl}sulfanyl)-4-(4-(2-hydroxyethoxy)phenyl)-6-(morpholin-4-yl)pyridine-3,5-dicarbonitrile] | – | – | – | – | – | EC50 (adenosine A1 receptor): 0.0003 µM; EC50 (adenosine A2b receptor): 0.055 µM
N#Cc1c(SCc2csc(-c3ccc(Cl)cc3)n2)nc(N2CCCC2)c(C#N)c1-c1ccc(OCCOC(=O)[C@@H](N)CCCN)cc1 [Example 59, 2-{4-(2-({(2-(4-Chlorophenyl)-1,3-thiazol-4-yl)methyl}sulfanyl)-3,5-dicyano-6-(pyrrolidin-1-yl)pyridin-4-yl)phenoxy}ethyl L-ornithinate bis(trifluoroacetate)] | 99 | 95 | 0 | 0 | – | –
N#Cc1c(SCc2csc(-c3ccc(Cl)cc3)n2)nc(N2CCCC2)c(C#N)c1-c1ccc(OCCOC(=O)CCN)cc1 [Example 50, 2-{4-(2-({(2-(4-Chlorophenyl)-1,3-thiazol-4-yl)methyl}sulfanyl)-3,5-dicyano-6-(pyrrolidin-1-yl)pyridin-4-yl)phenoxy}ethyl beta-alaninate trifluoroacetate] | 99 | 99 | 94 | 78 | – | –
C[C@H](NC(=O)[C@@H](N)CCCN)C(=O)OCCOc1ccc(-c2c(C#N)c(SCc3csc(-c4ccc(Cl)cc4)n3)nc(N3CCCC3)c2C#N)cc1 [Example 58, 2-{4-(2-({(2-(4-Chlorophenyl)-1,3-thiazol-4-yl)methyl}sulfanyl)-3,5-dicyano-6-(pyrrolidin-1-yl)pyridin-4-yl)phenoxy}ethyl L-ornithyl-L-alaninate bis(trifluoroacetate)] | – | – | – | – | 470 | –
CCCNc1nc(SCc2csc(-c3ccc(Cl)cc3)n2)c(C#N)c(-c2ccc(OCCOC(=O)[C@H](C)NC(=O)[C@@H](N)CCCCN)cc2)c1C#N [Example 54, 2-{4-(2-({(2-(4-Chlorophenyl)-1,3-thiazol-4-yl)methyl}sulfanyl)-3,5-dicyano-6-(propylamino)pyridin-4-yl)phenoxy}ethyl L-lysyl-L-alaninate bis(trifluoroacetate)] | 98 | 97 | 29 | 0 | 640 | –
CCCNc1nc(SCc2csc(-c3ccc(Cl)cc3)n2)c(C#N)c(-c2ccc(OCCOC(=O)[C@H](C)NC(=O)[C@H](C)N)cc2)c1C#N [Example 51, 2-{4-(2-({(2-(4-Chlorophenyl)-1,3-thiazol-4-yl)methyl}sulfanyl)-3,5-dicyano-6-(propylamino)pyridin-4-yl)phenoxy}ethyl L-alanyl-L-alaninate trifluoroacetate] | – | – | – | – | 540 | –
CNc1nc(SCc2csc(-c3ccc(Cl)cc3)n2)c(C#N)c(-c2ccc(OCCOC(=O)[C@@H](N)CCCN)cc2)c1C#N [Example 52, 2-{4-(2-({(2-(4-Chlorophenyl)-1,3-thiazol-4-yl)methyl}sulfanyl)-3,5-dicyano-6-(methylamino)pyridin-4-yl)phenoxy}ethyl L-ornithinate bis(trifluoroacetate)] | – | – | – | – | 280 | –
CCCNc1nc(SCc2csc(-c3ccc(Cl)cc3)n2)c(C#N)c(-c2ccc(OCCO)cc2)c1C#N [Example 12] | – | – | – | – | – | Solubility of the active substance ([2]; result in words): below the detection limit
